Data as given in publication PMC6874683, “Pyrrothiogatain acts as an inhibitor of GATA family proteins and inhibits Th2 cell differentiation in vitro” (Scientific Reports, 2019).

Legend:
Th2 cells = assay: Cytokine production of in vitro differentiated Th2 cells restimulated for 16 h (ELISA); assay type: cell-based, mouse; details: restimulated 16 h, 0 to 100 µM
Method: To clarify the effects of pyrrothiogatain on Th2 cell differentiation, naive CD4 T cells were purified and cultured under Th2 conditions in the presence or absence of pyrrothiogatain for 5 days, and then the Th2 cell differentiation status was determined by intracellular staining. The generation of IL-4-, IL-5-, and IL-13-producing Th2 cells was repressed by treatment with pyrrothiogatain (Fig. 5A). Decreased production and mRNA expression of IL-4, IL-5 and IL-13 were confirmed using ELISA and RT-qPCR, respectively (Fig. 5B,C). […] Next, we treated in vitro differentiated Th2 cells with pyrrothiogatain to test the effect of pyrrothiogatain on Th2 cytokine production. Total CD4^+ cells were cultured under Th2 conditions for 5 days, and then the Th2 cells were restimulated in the presence or absence of pyrrothiogatain for 16 h. […]
Figure 5 Pyrrothiogatain inhibits Th2 cell differentiation and production of Th2 cytokines. […] (B) Cytokine production induced in the pyrrothiogatain treated Th2 cells shown in panel (A) was determined by ELISA. (C) Quantitative RT-PCR analysis of the pyrrothiogatain-treated Th2 cells shown in panel (A). […] The amounts of IL-4, IL-5 and IL-13 in the culture supernatants were determined by ELSA. In (B), (C) and (E), all data are expressed as individual points of three independent experiments with error bars indicating standard deviation. […]

Jurkat cells = assay: MTS assay (cytotoxicity); assay type: cell-based; details: 0 to 100 µM, 3 days
Method: Jurkat cells were cultured at 37 °C with 5% CO2 in RPMI 1640 Medium (cat#72400047; Thermo Fisher) in the presence or absence of pyrrothiogatain (0 to 100 µM). Cell viability was measured using a CellTiter 96® AQueous One Solution Cell Proliferation Assay (cat#G3582; Promega) according to the manufacturer’s protocol.

SMILES: Cc1ccc(C)n1-c1ccsc1C(=O)O [Pyrrothiogatain, 3-(2,5-dimethyl-1H-pyrrol-1-yl)thiophene-2-carboxylic acid]
- IL-4, IL-5 and IL-13 production of restimulated Th2 cells (Th2 cells): decreased
- Cell viability (Jurkat cells): did not influence cell viability
